# Measured values published in patent US4064260A, “Anti-inflammatory diarylimidazothiazoles and their corresponding S-oxides” (E. I. Du Pont de Nemours and Company, priority 1976, dated 1977).
# Experiments:
# [1] = test system: Adjuvant-Induced Arthritis in Rats; experiment: Established Adjuvant-Induced Arthritis in Rats (paw volume); format: in vivo, Charles River Lewis male rats; settings: 24 h; rat; oral; dosed that day and 6 following days; ED50% decrease from control paw volume (uninjected left hind paw), one day after last dose
# Experimental: A standard procedure for detecting and comparing the anti-inflammatory activity of compounds in this series for which there is good correlation with human efficacy is the adjuvant-induced arthritis test in rats.
# Established Adjuvant-Induced Arthritis in Rats
# Charles River Lewis male rats (130-150 grams) are injected subcutaneously in the plantar area of the right hind paw with 0.1 ml of adjuvant (Difco heat-killed, lyophilized Myobacterium butyricum suspended in mineral oil 5 mg./ml.). 20 Non-arthritic controls are injected with mineral oil. The animals are held for 2 weeks to allow development of arthritis. Paw volumes (uninjected, left hand paw) are measured and the adjuvant injected rats are culled and distributed to treatment groups of 10 of equal disease severity. Non-arthritic controls are distributed to 2 groups of 10. The rats are given oral doses of compound or PVA-Acacia (10 ml./kg.) on that day and on the 6 following days. One day after the last dose the paw volumes (uninjected, left hind paw) are measured using a Ugo Basile Volume Differential Meter Model 7101. [formula]
# Dose-response regression lines of the % decrease are plotted on semi-log paper by visual fit and the ED50% decrease from control paw volume is determined by inspection.
# [2] = test system: phenylquinone writhing in mice; experiment: phenylquinone writhing test in mice (analgesic); format: in vivo, Carworth CF-lS male mice; settings: po; mouse; intubated in 0.5% methylcellulose; phenylquinone 1.25 mg/kg i.p. 30 min later; observed 30-40 min after antagonist
# Experimental: An equally reliable test that is used for testing analgesic activity of compounds is the phenylquinone writhing test in mice.
# Writhing was caused in mice by the intraperitoneal injection of phenyl-p-benzoquinone (Siegmund, E., Cadmus, R., Lu, G., Proc. Soc. Exp. Biol, and Med., 95, 729, 1957).
# Groups of 10 or more Carworth CF-lS male mice, 18-21 g each, were fasted 17-21 hours and were intubated with the writhing antagonist at several dose levels in 0.5% methylcellulose. 30 Minutes later the mice were challenged with phenylquinone (1.25 mg./kg., i.p., dissolved in ethanol and diluted to 5% ethanol with distilled water at 40° C.). […] ED50' s were obtained by the Litchfield and Wilcoxon Method (Litchfield, J. T. and Wilcoxon, F., J.P.E.T., 96, 99 1949) and the Weil moving average method (Weil, C., Biometrics, 8 ,249 1952). Peak time studies were also done with some of these compounds and their peak time ED50' s were recorded.
Structure (SMILES),ED50 [1] [mg/kg],ED50 [2] [mg/kg]
"COc1ccc(-c2nc3n(c2-c2ccc(OC)cc2)C(F)C(F)(F)S3)cc1 (stereo not shown) [0 F F H F, 2,3-Dihydro-2,2,3-trifluoro-5,6-bis(p-methoxyphenyl)imidazo-[2,1-b]thiazole]",11,–
"COc1ccc(-c2nc3n(c2-c2ccc(OC)cc2)CCS3)cc1 [0 H H H H, 2,3-Dihydro-5,6-bis(p-methoxyphenyl)imidazo[2,1-b]thiazole]",5.5,64
"COc1ccc(-c2nc3n(c2-c2ccc(OC)cc2)CC[S+]3[O-])cc1 (stereo not shown) [1 H H H H, 2,3-Dihydro-5,6-bis(p-methoxyphenyl)imidazo[2,1-b]thiazole S-oxide]",7.4,8.7
"COc1ccc(-c2nc3n(c2-c2ccc(OC)cc2)CCS3(=O)=O)cc1 [2 H H H H, 2,3-Dihydro-5,6-bis(p-methoxyphenyl)imidazo[2,1-b]thiazole S,S-dioxide]",8,> 130
